Here are results for two molecules from patent US12678458B2, “Antiseptic composition” (BOBS SILVER, priority 2020, dated 2026).

Converted amounts (≈) assume the structure as drawn.

The test system of assay [1] is Total bacteria. The experiment in a line: Agar diffusion test, inhibitory zones. The format is cell-based. Background: A growth-free zone around the sample is the usual read-out of agar diffusion tests.
Assay [2] relates to Pseudomonas aeruginosa. The experiment in a line: Agar diffusion test, inhibitory zones. It is filed as cell-based. As to conditions: P. aeruginosa; 0.1 ml in 9 mm wells.
In assay [3] the test system is Total Gram-negative. The experiment in a line: organism not typed. The format is cell-based.
Assay [4] relates to Pseudomonas aeruginosa. Description: Minimum inhibitory concentrations, two-fold serial dilution in agar. The format is cell-based. As to conditions: P. aeruginosa.
The test system of assay [5] is Staphylococcus aureus. The description is as above. As to conditions: S. aureus. It is filed as cell-based.
Assay [6] relates to Clostridium perfringens. The experiment in a line: microbe, parasite or virus in culture. The format is cell-based.
The subject of assay [7] is Staphylococcus aureus subsp. aureus ATCC-6538 (NBIMCC 3359). Description: Agar diffusion test, inhibitory zones. It is filed as cell-based. As to conditions: S. aureus; 0.1 ml in 9 mm wells.
For assay [8], the system named is Esherichia coli. The experiment in a line: Minimum inhibitory concentrations, two-fold serial dilution in agar. As to conditions: E. coli. The format is cell-based, Escherichia coli.
The subject of assay [9] is Total bacteria. The assay is described as above. The format is cell-based.
In assay [10] the test system is Salmonella enterica subsp. enterica ATCC 1304 (NBIMCC 8691). The experiment in a line: Agar diffusion test, inhibitory zones. It is filed as cell-based. As to conditions: S. enterica; 0.1 ml in 9 mm wells.
Assay [11] concerns Total Gram-negative. The experiment in a line: Agar diffusion test, inhibitory zones. The format is cell-based.
Assay [12] concerns Total Gram-positive bacteria. It is filed as cell-based.
Assay [13] has as its system Total (all microorganisms). The experiment in a line: Minimum inhibitory concentrations, two-fold serial dilution in agar. It is filed as cell-based.
Assay [14] relates to Esherichia coli ATCC-8739 (NBIMCC 3397). The experiment in a line: Agar diffusion test, inhibitory zones. The format is cell-based, Escherichia coli. As to conditions: E. coli; 0.1 ml in 9 mm wells.
The test system of assay [15] is Total (all microorganisms). Description: Agar diffusion test, inhibitory zones. It is filed as cell-based.
Assay [16] concerns Clostridium perfringens ATCC 13124 (NBIMCC 8615). The format is cell-based. As to conditions: C. perfringens; 0.1 ml in 9 mm wells.
For assay [17], the system named is Candida albicans ATCC 10231 (NBIMCC 74). The experiment in a line: Agar diffusion test, inhibitory zones. As to conditions: C. albicans; 0.1 ml in 9 mm wells. It is filed as cell-based.
The subject of assay [18] is Candida albicans. Description: Minimum inhibitory concentrations, two-fold serial dilution in agar. It is filed as cell-based. As to conditions: C. albicans.
Assay [19] concerns Salmonella enterica. Description: microbe, parasite or virus in culture. It is filed as cell-based.
The subject of assay [20] is Streptococcus pyogenes. The experiment in a line: Minimum inhibitory concentrations, two-fold serial dilution in agar. It is filed as cell-based. As to conditions: S. pyogenes.
The subject of assay [21] is Total Gram-positive. Description: organism not typed. The format is cell-based.
The test system of assay [22] is Streptococcus pyogenes. Description: Agar diffusion test, inhibitory zones. It is filed as cell-based. As to conditions: S. pyogenes; 0.1 ml in 9 mm wells.
In assay [23] the test system is HRV-A16. As to conditions: well-known antiviral compound; cited from earlier work.

For `CS(=O)(=O)c1ccc([C@@H](O)[C@@H](CO)NC(=O)C(Cl)Cl)cc1` [Thiamphenicol, thiamphenicol], the “Inhibitory zones in mm” value in [1] turned out to be 29.9 ± 5.7 mm; in [2], 34.8 ± 0.8 mm; in assay [7], 25.7 ± 3.3 mm; in assay [10], 35.3 ± 0.8 mm; in [11] it was 35.4 ± 0.5 mm; in [12] it was 24.3 ± 2.1 mm. The “Inhibitory zones in mm” value in [14] is reported as 36.0 ± 0.8 mm; in [15], 29.7 ± 5.3 mm; in assay [16], 21.3 ± 0.5 mm; in assay [17] it was 28.7 ± 3.7 mm; in [22], 26.0 ± 4.5 mm. Besides, the “Th D” value was 64.00 µg/mL in assay [3]; 64 µg/mL in assay [4]; 64 µg/mL in assay [5]; 16 µg/mL in assay [6] (C. perfringens); 64 µg/mL in assay [8]; 66.7 µg/mL in [9]. Also, the “Th D” value came out at 84.00 µg/mL in assay [13]; 128 µg/mL in assay [18]; 64 µg/mL in assay [19] (S. enterica); 128 µg/mL in assay [20]; 42.00 µg/mL in assay [21]. In addition, the MIC50 in assay [3] (read-out: Th MIC50) was found to be 10.7 µg/mL (≈ 30 µM); in [4] (Pseudomonas aeruginosa, read-out: Th MIC50), 8 µg/mL (≈ 22.5 µM); in assay [5] (Staphylococcus aureus, read-out: Th MIC50), 16 µg/mL (≈ 44.9 µM); in assay [6] (Clostridium perfringens, read-out: Th MIC50) it was 4 µg/mL (≈ 11.2 µM); in assay [8] (Escherichia coli, read-out: Th MIC50), 8 µg/mL (≈ 22.5 µM); in [9] (Total bacteria, read-out: Th MIC50) it was 14 µg/mL (≈ 39.3 µM). For the same molecule, the MIC50 stood at 16.6 µg/mL (≈ 46.5 µM) in [13] (Total (all microorganisms), read-out: Th MIC50); 32 µg/mL (≈ 89.8 µM) in assay [18] (Candida albicans, read-out: Th MIC50); 16 µg/mL (≈ 44.9 µM) in assay [19] (Salmonella enterica, read-out: Th MIC50); 32 µg/mL (≈ 89.8 µM) in [20] (Streptococcus pyogenes, read-out: Th MIC50); 21 µg/mL (≈ 59 µM) in [21] (read-out: Th MIC50).

For the molecule `CCOC(=O)/C=C/[C@H](C[C@@H]1CCNC1=O)NC(=O)[C@@H](CC(=O)[C@@H](NC(=O)c1cc(C)on1)C(C)C)Cc1ccc(F)cc1` [rupintrivir], the antiviral response result in [23] is “almost complete response”.
